# Experimental data from US20220162229A1, “HETEROCYCLIC COMPOUNDS AND USES THEREOF” (Nuvation Bio Inc., priority 2019, published 2022).
# Like-named read-outs stand apart in the source and are kept apart here.
# What was measured:
# WEE1 kinase enzyme = target: T1, WEE1 kinase enzyme (Homo sapiens, UniProt P30291); experiment: WEE1 IC50 determination, LanthaScreen Terbium Labeled TR-FRET kinase assay; format: biochemical; details: WEE1 enzyme 1 nM, ATP 10 μM, 1 h
# T1 construct: purchased Invitrogen, Life Technologies, Grand Island, N.Y. PR7373A
# Method: IC50 values of compounds against WEE1 kinase enzyme were determined by LanthaScreen™ Terbium Labeled TR-FRET assay. Kinase assays were performed in 1× kinase buffer (#PV6135, Invitrogen, Life Technologies, Grand Island, N.Y.) where total reaction volume is 10 μL in low-volume 384-well plates (#4511, Corning). Serially diluted compounds (3-fold) were incubated with WEE1 Enzyme (1 nM) (#PR7373A, Invitrogen, Life Technologies, Grand Island, N.Y.) for 10 min; a mixture of ATP (10 μM) (#A1852, Sigma, St. Louis, Mo.) and fluorescent-PolyGT substrate (200 nM) (#PV3610, Invitrogen, Life Technologies, Grand Island, N.Y.) was added and incubated in dark at room temperature for 1 h. After 1 h, 10 μL stop solution containing terbium labeled antibody (4 nM) (#PV3529, Invitrogen, Life Technologies, Grand Island, N.Y.) and EDTA (#E5134, Sigma, St. Louis, Mo.) (20 mM) in TR-FRET dilution buffer (#PV3574, Invitrogen, Life Technologies, Grand Island, N.Y.) was added. Readings were taken in a Synergy Neo plate reader (BioTek, Winooski, Vt.) at single excitation of 340 nm and dual emission at 495 nm and 520 nm respectively.
# The % activity of test samples was calculated as (Sample−Min)*100/(Max−Min). [Max: DMSO control, complete reaction with enzyme & DMSO and Min: No enzyme & DMSO]. […]
# U-87 MG = experiment: Cytotoxicity assay (resazurin) in U-87 MG cell line; format: cell-based; details: Homo sapiens, read-out: U-87 MG IC50
# Method: (§1) A427 (HTB-53; ATCC), a lung epithelial cell line, was seeded in medium (MEM, 41090101; Gibco) at a cell count of 1500 cells per 100 μL per well in a 96 well edge plate (167425; ThermoFisher). Cells were allowed to grow at 37° C. for 24 hr in 5% CO2 environment (culture conditions) in a Nuaire incubator (humidified). Serially diluted test compounds (100 μL) within the desired testing concentration ranges were added to the culture plate and the cells further incubated in culture conditions for 72 hr. The experiment was terminated at the designated incubation time by replacing the medium with 100 μL of 1 mM of resazurin (R7017; Sigma) prepared in culture medium, and the plates were further incubated in culture conditions for 4-6 hr. Fluorescence was recorded using a multimodal plate reader (Biotek Synergy Neo) at an excitation wavelength of 535 nm and emission wavelength of 590 nm to obtain relative fluorescence units. Data were analysed as follows: the background fluorescence (blank containing only medium) value was subtracted from each reading and normalized with the vehicle control (DMSO treated cells) to obtain percent survival/proliferation. […] Potency of compounds in other cell lines (such as A549, As-Pc-1, Panc 10.05, A172, U-87 MG) may be determined in an analogous manner.
# As-Pc-1 = experiment: Cytotoxicity assay (resazurin) in As-Pc-1 cell line; format: cell-based; details: Homo sapiens, read-out: As-Pc-1 IC50
# Method: as §1
# T1 sequence (P30291 whole entry): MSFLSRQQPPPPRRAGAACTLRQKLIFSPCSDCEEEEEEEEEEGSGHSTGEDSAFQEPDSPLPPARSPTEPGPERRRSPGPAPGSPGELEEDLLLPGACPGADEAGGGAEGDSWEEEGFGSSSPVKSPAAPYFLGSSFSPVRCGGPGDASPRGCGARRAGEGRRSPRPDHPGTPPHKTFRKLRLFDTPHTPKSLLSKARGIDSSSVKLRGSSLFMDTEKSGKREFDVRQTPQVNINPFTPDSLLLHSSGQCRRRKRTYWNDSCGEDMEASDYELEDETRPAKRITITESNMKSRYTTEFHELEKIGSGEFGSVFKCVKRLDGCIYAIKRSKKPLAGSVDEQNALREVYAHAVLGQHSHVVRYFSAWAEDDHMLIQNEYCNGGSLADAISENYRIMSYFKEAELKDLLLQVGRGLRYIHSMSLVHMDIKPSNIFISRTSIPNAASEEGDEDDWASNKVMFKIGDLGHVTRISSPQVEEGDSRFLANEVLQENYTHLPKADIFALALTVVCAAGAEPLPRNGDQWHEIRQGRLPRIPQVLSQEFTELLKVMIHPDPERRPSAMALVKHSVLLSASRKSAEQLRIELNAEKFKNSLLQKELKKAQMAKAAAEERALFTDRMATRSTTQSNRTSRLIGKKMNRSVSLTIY
Structure (SMILES),IC50 (WEE1 kinase enzyme),"IC50 (U-87 MG; U-87 MG cells, 72 hr incubation, inhibition of proliferation)","IC50 (As-Pc-1; ASPC1, As-Pc-1 cells, 72 hr incubation, inhibition of proliferation)","IC50 (U-87 MG; U-87 MG, 72 h)","IC50 (As-Pc-1; ASPC1, 72 h)"
"CC1Oc2nc(Nc3ccc4c(c3)CCNC4(C)C)ncc2C(=O)N1c1c(Cl)cccc1Cl (stereo not drawn) [1.4, 3-(2,6-dichlorophenyl)-7-((1,1-dimethyl-1,2,3,4-tetrahydroisoquinolin-6-yl)amino)-2-methyl-2,3-dihydro-4H-pyrimido[5,4-e][1,3]oxazin-4-one]",0.127 µM,10.9 µM,8.5 µM,,
"CC1Oc2nc(Nc3ccc4c(c3)CNCC4)ncc2C(=O)N1c1c(Cl)cccc1Cl (stereo not drawn) [1.44, 3-(2,6-dichlorophenyl)-2-methyl-7-((1,2,3,4-tetrahydroisoquinolin-7-yl)amino)-2,3-dihydro-4H-pyrimido[5,4-e][1,3]oxazin-4-one]",0.133 µM,,,11.4 µM,19.5 µM
